From patent US20140328847A1, “MITIGATION OF DISEASE BY INHIBITION OF GALECTIN-12” (The Regents of the University of California, priority 2011, published 2014) come the findings set out here.

Assay [1] relates to adipocytes from Lgals12^+/+ and Lgals12^−/− mice. The experiment in a line: Lipolysis assay in primary adipocytes from Lgals12+/+ and Lgals12−/− mice (glycerol release). Type of assay: cell-based, mouse. Particulars: for lipolysis (glycerol release): 1 h, 37° C.; for cAMP/dbcAMP-stimulated lipolysis: in the presence of adenylyl cyclase inhibitor SQ 22536, FIG. 9G. Here is the method:
(A) Adipocytes from the epididymal fat depots of Lgals12^+/+ and Lgals12^-/- mice were incubated with indicated concentrations of isoproterenol before being separated into cytosol and fat cake. Lipolytic proteins in each fraction were analyzed by Western blotting with indicated antibodies. (B) Quantification of lipid droplet (LD)-associated p-HSL and HSL by densitometry of Western blots (n=3 for each genotype). […] (D) Quantification of LD-associated ATGL by densitometry of Western blots (n=3 for each genotype). […] Asterisks denote statistical significance (p<0.05). Results are representative of three experiments. FIGS. 10A-C illustrate (A) Adipocytes from Lgals12^+/+ and -/- mice (n=3) were incubated with 1 U/ml ADA and increasing concentrations of PIA for 1 h at 37° C. and glycerol release was measured. Results were expressed as both absolute values and as % of glycerol release in the absence of PIA. (B) Adipocytes from Lgals12+/+ and Lgals12^-/- mice (n=3 each) were incubated with or without 10 μM cilostamide (Cilo) or 25 μM rolipram (Roli), individually or in combination, for 2 h at 37° C. Lipolysis was determined by measuring glycerol release. (C) Insulin suppression of lipolysis in adipocytes stimulated with 20 nM isoproterenol (% of maximal release in the absence of insulin). Asterisks denote statistical significance (p<0.05). Similar results were obtained in three experiments. Adipocytes were isolated from gonadal fat depots in Krebs-Ringer HEPES (KRH) buffer by collagenase digestion and floatation ([…] Lipid Res 47:1859-1864). After the final wash, cell density and triglyceride content of the adipocyte suspension were determined as described (Fine […] (1997) Int J Obes Relat Metab Disord 21:764-768.). We monitored lipolysis in adipocytes isolated from random-fed Lgals12^+/+ and Lgals12^-/- mice on regular diet, by measuring fatty acid and glycerol release, as described ([…] Lipid Res 47:1859-1864), with minor modifications. Briefly, 2.5×10^5 cells were incubated in 0.3 ml KRH/3% FAA-free BSA (for basal lipolysis), or KRH/3% FAA-free BSA containing indicated concentrations of lipolysis stimulators or inhibitors (Sigma) for 0-2 h at 37° C. with shaking at 150 rpm. At the end of the incubation, glycerol and NEFA released into the infranatant was determined with the Free Glycerol Reagent (Sigma) and the Nonesterified Fatty Acids Kit ([…]), respectively.

Assay [2] has as its target T1, galectin-12 (Mus musculus, UniProt Q91VD1).
T1 construct: from tissue; host or cells: primary mouse adipocytes from epididymal fat depot
T1 sequence (Q91VD1 1-314): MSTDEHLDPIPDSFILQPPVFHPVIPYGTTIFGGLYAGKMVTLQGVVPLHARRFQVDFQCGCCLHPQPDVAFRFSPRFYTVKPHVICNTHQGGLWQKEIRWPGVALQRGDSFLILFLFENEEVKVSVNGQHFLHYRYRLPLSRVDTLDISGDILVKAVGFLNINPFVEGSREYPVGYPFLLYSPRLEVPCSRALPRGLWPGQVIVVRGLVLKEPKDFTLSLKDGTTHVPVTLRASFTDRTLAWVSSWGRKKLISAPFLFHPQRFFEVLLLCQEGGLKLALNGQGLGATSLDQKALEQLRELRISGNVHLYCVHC
The experiment in a line: Association of galectin-12 with lipid droplets purified from mouse adipocyte homogenates. As to conditions: lactose 25 mM present during lipid droplet purification; FIG. 5B. The method, then:
(§1) FIGS. 5A-B illustrate association of galectin-12 with lipid droplets is not inhibited by lactose. (A) Mouse adipocytes from epididymal fat depot were lyzed and the lysates were incubated with fetuin-agarose, in the absence (−) or presence (+) of 25 mM lactose. Bound proteins were eluted with SDS-sample buffer and galectin-12 was detected by Western blotting. (B) Lipd droplets were purified from mouse adipocyte homogenates in the absence (−) or presence (+) of 25 mM lactose. Galectin-12 was detected as in (A).
(§2) To test whether galectin-12 association with lipid droplets is glycan-dependent, we also purified lipid droplets in the presence of lactose.

Assay [3] has as its target T1, galectin-12. The assay is described as follows: Binding of galectin-12 from mouse adipocyte lysates to fetuin-agarose (Western blotting). As to conditions: lactose 25 mM; mouse epididymal adipocyte lysates; FIG. 5A. The method, then: as §1, §2
(A western blot detects proteins with antibodies after separation by electrophoresis.)

Take `CC(Cc1ccccc1)Nc1ncnc2c1ncn2[C@@H]1O[C@H](CO)[C@@H](O)[C@H]1O` (single isomer, unassigned; (-)) [PIA, (−)-N6-(2-Phenylisopropyl)adenosine]: the “lipolysis (glycerol release)” value in assay [1] (increasing concentrations of PIA with 1 U/ml ADA, FIG. 10A) was “suppressed lipolysis in both genotypes with similar efficiencies”.

On to `CC(C)Cn1c(=O)n(C)c(=O)c2[nH]cnc21` [IBMX, 3-isobutyl-1-methylxanthine], for which, in assay [1] (0.1 mM IBMX, both Lgals12+/+ and Lgals12−/− adipocytes, FIG. 9F), the “lipolysis (glycerol release)” value is on record as “greatly enhanced”.

With `OC[C@H]1O[C@@H](O[C@H]2[C@H](O)[C@@H](O)C(O)O[C@@H]2CO)[C@H](O)[C@@H](O)[C@H]1O` (stereo partly shown) [Lactose], at galectin-12 [2], the “galectin-12 association with lipid droplets” value is “did not affect”. Besides, on galectin-12 [3], the “binding of galectin-12 to fetuin-agarose” value is reported as “completely inhibited”.

With `Nc1ncnc2c1ncn2[C@@H]1O[C@@H]2COP(=O)(O)O[C@H]2[C@H]1O` [cAMP, cyclic adenosine monophosphate], in assay [1], the cAMP/dbcAMP-stimulated lipolysis result is listed as “stimulated greater lipolysis in Lgals12^−/− adipocytes than in Lgals12^+/+ adipocytes”.

Consider `CCCC(=O)Nc1ncnc2c1ncn2[C@@H]1O[C@@H]2COP(=O)(O)O[C@H]2[C@H]1OC(=O)CCC` [dbcAMP, dibutyryl cAMP], for which the cAMP/dbcAMP-stimulated lipolysis entry in assay [1] was “induced comparable lipolysis in adipocytes of the two genotypes”.

As to insulin, in assay [1] (Lgals12−/− adipocytes stimulated with 20 nM isoproterenol, FIG. 10C), the “insulin suppression of lipolysis” value is “remained sensitive”.
